{"source": "patent US20030211458A1", "about": "“Measurements of enzymatic activity in a single, individual cell in population” (priority 2000, published 2003)", "key": {"[1]": {"system": "intracellular nonspecific esterase", "experiment": "Individual-cell sequential FDA hydrolysis (KMAPP, VMAX) on CS-S cytometer", "assay_type": "cell-based, human", "settings": "for average KMAPP / average VMAX: average of individual cells; for FI rate ratios of the same trapped cells sequentially exposed to different FDA concentrations: same cell carrier", "experimental": "Measuring Intracellular Nonspecific Esterase Activity in a Single Lymphocyte Using Fluorescein-Diacetate (FDA) as the Substrate.\nPhytohemagglutinin PHA (HA15, Murex Biotech) was reconstituted in 5 ml of double-distilled water and further diluted ten times. For stimulation, 10 μl of this solution was added to a 90 μl cell suspension (7×10^6 cells/ml).\nA staining solution of 3.6 μM FDA (Riedel-de Haen Ag. Seelze-Hanover) in Dulbecco Phosphate Buffered Saline (PBS, Biological Industries) was prepared as follows: 50 mg of FDA was dissolved in 5 ml of DMSO (Sigma). 7.5 μl of this solution was added to 50 ml PBS. For 0.6, 1.2 and 2.4 μM the solution was further diluted in PBS.\n30 Heparinized blood (30 ml), was taken from healthy, normal volunteers. The procedure for separating the PBMC has been described in detail, elsewhere [Sunray M, Deutsch M, Kaufman M, Tirosh R, Weinreb A, and Rachmani H. Cell Activation influences cell staining linetics, Spectrochimica Acta A (1997) 53:1645-1653]. Shortly after removing the iron absorbing cells, the remaining cells are layered on a two-layer (100% and 80%) cell density gradient (Ficoll Paque, Pharmacia 1.077 g/ml) and centrifuged. The cells accumulated at the interface between the two Ficoll layers, were collected and kept at 37° C. in 5 ml of enriched culture medium overnight. The next day the PBMC were washed and resuspended in PBS at a final concentration of 7·10^6 cells/ml. More than 70% of the cells were defined as T lymphocytes and viability, which was determined using eosin, was always higher than 90%.\nFreshly prepared PBMC (7·10^6 cells/ml) were incubated at 37° C., 5% CO2 with 5 μgr/ml PHA for 30 minutes. PBMC controls were incubated without PHA under identical conditions.\nThe multiparametric, computerized, discrete cytometer CS-S used in performing this example was described in detail in the above specified US Patents. Its central feature is a cell carrier (CC) incorporating a 100×100 dimensional array having a conical cross-section with an upper opening of ˜7 μm and lower opening of ·4 μm, each approximately 20 μm apart, in which individual cells are trapped. The cell carrier is mounted on a computer-controlled stage that enables repeated multi-scanning of the same cells.\nLoading the cells in wells traps on the Cell Carrier (CC) was carried out, as described in Deutsch M, and Weinreb A., Apparatus for High Precision Repetitive Sequential Optical Measurement of Living Cells, Cytometry (1994) 16: 214-226. An aliquot of 80 μl of unstained cell suspension (7×10^6 cells/ml) was loaded on the CC. Initial scanning was then performed in order to detect individual cell background scattering and auto-fluorescence. This undesired signal is recorded per measurement location and subtracted from the total emission signal (after exposure) in order to obtain the correct fluorescence signal.\nFor fluorescence intensity FI(t) measurements, trapped cells on the CC were sequentially exposed to increasing concentrations of FDA in PBS staining solutions.\nFollowing background measurement, the volume of PBS, which covers the cells, was pumped out and the following procedure was carried out:\nAt time point zero, 40 μl of the lowest substrate concentration solution was applied on top of the trapped cells and a pre-chosen cell field was sequentially scanned 6 times. This yielded 6 accurately timed FI data points per each individual cell at a given dye concentration. FI is usually measured utilizing epi-fluoescence optical arrangement which permits the differentiation between the excitation energy and the emitted fluorescence energy to be detected by photomultipliers, CCD detectors etc.\nThe above procedure is repeated for each different substrate solution used in the experiment.\nThis yielded six FI data points for each individual cell, per substrate concentration, from which V was extracted and the individual cell KMAPP and VMAX values were calculated. […]"}, "[2]": {"system": "intracellular nonspecific esterase", "experiment": "Flow cytometer (FACSCalibur) population average KMAPP and VMAX of FDA hydrolysis", "assay_type": "cell-based, human", "experimental": "Methods Cell Biol (1994) 41: 469-508. Four means of intracellular fluorescence intensities (IFI) were calculated from data accumulated along four time gates of 25 second each and 30 seconds apart, from which V0 was extracted. This process was sequentially performed on five different aliquots of cells (50 μl, at a concentration of 6×10^6 cells/ml) each exposed to different FDA concentrations (0.3, 0.6, 1.2, 1.8 and 2.4 μM. Introducing these average V0 in values Eq. 8 yielded population average KMAPP and VMAX of 2.16 μM and 4.32 μM and 6.6 and 5.83 in cells incubated with and without PHA. It should be noted that while KMAPP is an intrinsic value, VMAX depends on the optoelelctronic arrangement under use. Thus, obviously, at the population level, measurements carried out both on FC and average calculated from individual cell KMAPP measurement data yield similar KMAPP values, indicating the validity of the invented methodology."}, "[3]": {"system": "Peripheral blood lymphocytes", "settings": "individual cell, FDA staining before and after incubation at 37° C., FIG. 7", "quoted_text": "Peripheral blood lymphocytes were loaded on a CC, and exposed to FDA, after which individual FI(t) was measured. […] At the end of incubation, the same cells were again exposed to the same FDA concentration and FI(t) measurements were again performed.\nSince cells are in general heterogeneous, one would expect a distribution of FI(t) rates (slopes) in the same experiment. […] Thus, in such an experimental procedure, the determining parameter is the ratio between the initial and the final slopes, namely, the ratios between FI(t) slopes prior to and after incubation (with and without drugs), as well as ratios of individual KMAPP and VMAX prior to and after incubation."}, "[4]": {"system": "intracellular nonspecific esterase", "experiment": "Individual-cell sequential FDA hydrolysis (KMAPP, VMAX) on CS-S cytometer", "assay_type": "cell-based, human", "settings": "different cell carriers"}, "[5]": {"settings": "PHA-incubated vs control cells, CS-S"}, "[6]": {"settings": "1.2/0.6 μM FDA (concentration ratio 2.0)"}, "[7]": {"settings": "2.4/0.6 μM FDA (concentration ratio 4.0)"}, "[8]": {"settings": "3.6/0.6 μM FDA (concentration ratio 6.0)"}, "[9]": {"settings": "FDA substrate, cells incubated without PHA, CS-S"}, "[10]": {"settings": "FDA substrate, cells incubated without PHA"}}, "data": [{"compound": "Phytohemagglutinin [PHA]", "values": [{"measurement": "decrease in KMAPP compared to the control", "setting": "[1]; [5]", "result": 69, "unit": "%"}, {"measurement": "decrease in VMAX compared to the control", "setting": "[1]; [5]", "result": 6, "unit": "%"}, {"measurement": "average KMAPP", "setting": "[1]; cells incubated with PHA, FDA substrate 0.6-3.6 μM, CS-S", "result": 1.50, "unit": "µM"}, {"measurement": "average VMAX", "setting": "[1]; cells incubated with PHA, FDA substrate, CS-S", "result": 652, "unit": "intensity/sec"}, {"measurement": "population average VMAX", "setting": "[2]; cells incubated with PHA", "result": 6.6}, {"measurement": "population average KMAPP", "setting": "[2]; cells incubated with PHA, FDA 0.3-2.4 μM", "result": 2.16, "unit": "µM"}]}, {"compound": "OO", "note": "[H2O2, hydrogen peroxide]", "values": [{"measurement": "ratio pre to post treatment slopes (FI rate), control cells relative to treated cells", "setting": "[3]", "result": "double"}]}, {"compound": "CC(=O)Oc1ccc2c(c1)Oc1cc(OC(C)=O)ccc1C21OC(=O)c2ccccc21", "note": "[FDA, Fluorescein-Diacetate]", "values": [{"measurement": "FI rate ratios of cells parallely exposed to different FDA concentrations", "setting": "[4]; [6]", "result": 1.9}, {"measurement": "FI rate ratios of cells parallely exposed to different FDA concentrations", "setting": "[4]; [7]", "result": 4.4}, {"measurement": "FI rate ratios of cells parallely exposed to different FDA concentrations", "setting": "[4]; [8]", "result": 6.2}, {"measurement": "FI rate ratios of the same trapped cells sequentially exposed to different FDA concentrations", "setting": "[1]; [6]", "result": 2.1}, {"measurement": "FI rate ratios of the same trapped cells sequentially exposed to different FDA concentrations", "setting": "[1]; [7]", "result": 3.6}, {"measurement": "FI rate ratios of the same trapped cells sequentially exposed to different FDA concentrations", "setting": "[1]; [8]", "result": 5.6}, {"measurement": "average KMAPP", "setting": "[1]; [9]", "result": 4.88, "unit": "µM"}, {"measurement": "average VMAX", "setting": "[1]; [9]", "result": 695, "unit": "intensity/sec"}, {"measurement": "population average KMAPP", "setting": "[2]; [10]", "result": 4.32, "unit": "µM"}, {"measurement": "population average VMAX", "setting": "[2]; [10]", "result": 5.83}]}]}
